{"source": "patent US9232796B2", "about": "“Herbicidal compositions comprising 4-amino-3-chloro-5-fluoro-6-(4-chloro-2-fluoro-3-methoxyphenyl) pyridine-2-carboxylic acid or a derivative thereof and acetyl-CoA carboxylase (ACCase) inhibitors” (DOW AGROSCIENCES LLC, priority 2012, dated 2016)", "key": {"CYPDI": {"tested_on": "CYPDI", "test": "Example I postemergence foliar-applied, greenhouse, direct seeded rice weeds", "assay_type": "in vivo, Cyperus difformis L.", "conditions": "4.38 gae/ha", "text": "(§1) Seeds or nutlets of the desired test plant species were planted in a soil matrix prepared by mixing a loam or sandy loam soil (e.g., 28.6 percent silt, 18.8 percent clay, and 52.6 percent sand, with a pH of about 5.8 and an organic matter content of about 1.8 percent) and calcareous grit in an 80 to 20 ratio. The soil matrix was contained in plastic pots with a volume of 1 quart and a surface area of 83.6 square centimeters (cm^2). When required to ensure good germination and healthy plants, a fungicide treatment and/or other chemical or physical treatment was applied. The plants were grown for 8-22 days in a greenhouse with an approximate 14 hr. photoperiod which was maintained at about 29° C. during the day and 26° C. during the night. Nutrients (Peters Excel® 15-5-15 5-Ca 2-Mg and iron chelate) were applied in the irrigation solution as needed and water was added on a regular basis. Supplemental lighting was provided with overhead metal halide 1000-Watt lamps as necessary. The plants were employed for testing when they reached the first through fourth true leaf stage.\n(§2) Treatments consisted of the acid or esters of 4-amino-3-chloro-5-fluoro-6-(4-chloro-2-fluoro-3-methoxy-phenyl)pyridine-2-carboxylic acid (Compound A), each formulated as an SC (suspension concentrate), and various herbicidal components alone and in combination.\n(§3) Other herbicidal components were applied on an acid equivalent (ae) or active ingredient (ai) basis and included acetyl coA carboxylase (ACCase)-inhibiting herbicides (cyclohexanedione and aryloxyphenoxypropionate chemical classes) cyhalofop-butyl formulated as Clincher® SF (285 gr ai/L EC), diclofop-methyl formulated as Hoelon® 3EC, fenoxaprop-p-ethyl+isoxadifen-ethyl formulated as RiceStar® HT (0.58 lb./gal EC), fenoxaprop-p-ethyl+mefenpyr diethyl formulated as Puma® IEC, metamifop formulated as Metamifop EC, haloxyfop-methyl formulated as Gallant Super®, fluazifop-p-butyl formulated as Fusilade® DX, quizalofop-p-ethyl formulated as Assure® II, profoxydim formulated as Aura® 20EC, clethodim applied as Intensity®, sethoxydim formulated as Poast®, and tralkoxydim formulated as Achieve®.\n(§4) Treatment requirements were calculated based upon the rates being tested, the concentration of active ingredient or acid equivalent in the formulation, and a 12 mL application volume at a rate of 187 L/ha.\n(§5) For treatments comprised of formulated compounds, measured amounts of compounds were placed individually in 25 mL glass vials and diluted in a volume of 1.25% (v/v) Agri-Dex® crop oil concentrated to obtain 12× stock solutions. […] Application solutions were prepared by adding an appropriate amount of each stock solution (e.g., 1 mL) and diluted to the appropriate final concentrations with the addition of 10 mL of an aqueous mixture of 1.25% (v/v) crop oil concentrate so that the final spray solutions contained 1.25+/−0.05% (v/v) crop oil concentrate.\nAll stock solutions and applications solutions were visually inspected for compound compatibility prior to application. […]\n(§6) The treated plants and control plants were placed in a greenhouse as described above and watered by sub-irrigation to prevent wash-off of the test compounds. After approximately 3 weeks, the condition of the test plants as compared with that of the untreated plants was determined visually and scored on a scale of 0 to 100 percent where 0 corresponds to no injury or growth inhibition and 100 corresponds to complete kill. […]"}, "BRAPP": {"tested_on": "BRAPP", "test": "Example I postemergence foliar-applied, greenhouse, direct seeded rice weeds", "assay_type": "in vivo, Brachiaria platyphylla (Griseb.) Nash", "text": "as §1, §2, §3, §4, §5\nAll stock solutions and applications solutions were visually inspected for compound compatibility prior to application. Spray solutions were applied to the plant material with an overhead Mandel track sprayer equipped with a 8002E nozzles calibrated to deliver 187 L/ha over an application area of 0.503 m^2 at a spray height of 18 to 20 inches (46 to 50 cm) above average plant canopy height. Control plants were sprayed in the same manner with the solvent blank.\nas §6"}, "APESV": {"tested_on": "APESV", "test": "Example IV postemergence foliar-applied, greenhouse, cereal crops weeds", "assay_type": "in vivo, Apera spica-venti (L.) Beauv.", "description": "(§7) Seeds of the desired test plant species were planted in Sun Gro MetroMix® 306 planting mixture, which typically has a pH of 6.0 to 6.8 and an organic matter content of about 30 percent, in plastic pots with a surface area of 103.2 square centimeters (cm^2). […] The plants were grown for 7-36 days in a greenhouse with an approximate 14 hour photoperiod which was maintained at about 18° C. during the day and about 17° C. during the night. Nutrients and water were added on a regular basis and supplemental lighting was provided with overhead metal halide 1000-Watt lamps as necessary. The plants were employed for testing when they reached the second or third true leaf stage.\n(§8) Treatments consisted of the benzyl ester of 4-amino-3-chloro-5-fluoro-6-(4-chloro-2-fluoro-3-methoxy-phenyl)pyridine-2-carboxylic acid (Compound A), formulated as an SC, a second cereal herbicide alone and then both in combination.\n(§9) Other herbicidal components were applied on an active ingredient basis and included acetyl-CoA carboxylase (ACCase)-inhibiting herbicides clodinafop-propargyl, fenoxaprop-P-ethyl, pinoxaden and tralkoxydim.\n(§10) Measured aliquots of benzyl ester of 4-amino-3-chloro-5-fluoro-6-(4-chloro-2-fluoro-3-methoxy-phenyl)pyridine-2-carboxylic acid (Compound A) were placed in 25 milliliter (mL) glass vials and diluted in a volume of 1.25% (v/v) Agri-Dex® crop oil concentrate to obtain stock solutions. Compound requirements are based upon a 12 mL application volume at a rate of 187 liters per hectare (L/ha). […] Formulated compounds were applied to the plant material with an overhead Mandel track sprayer equipped with an 8002E nozzle calibrated to deliver 187 L/ha over an application area of 0.503 square meters (m^2) at a spray height of 18 inches (46 cm) above average plant canopy. Control plants were sprayed in the same manner with the solvent blank.\n(§11) The treated plants and control plants were placed in a greenhouse as described above and watered by sub-irrigation to prevent wash-off of the test compounds. After 20-22 days, the condition of the test plants as compared with that of the control plants was determined visually and scored on a scale of 0 to 100 percent where 0 corresponds to no injury and 100 corresponds to complete kill.\n(§12) Colby's equation was used to determine the herbicidal effects expected from the mixtures (Colby, S. R. 1967. Calculation of the synergistic and antagonistic response of herbicide combinations. Weeds 15:20-22.).\n(§13) The following equation was used to calculate the expected activity of mixtures containing two active ingredients, A and B: Expected=A+B−(A×B/100)"}, "PHAMI": {"tested_on": "PHAMI", "test": "Example IV postemergence foliar-applied, greenhouse, cereal crops weeds", "assay_type": "in vivo, Phalaris minor Retz.", "description": "as §7, §8, §9, §10, §11, §12, §13"}, "[1]": {"conditions": "Compound A Benzyl Ester 5 gai/ha"}, "[2]": {"conditions": "Compound A Benzyl Ester 10 gai/ha"}}, "data": [{"smiles": "COc1c(Cl)ccc(-c2nc(C(=O)O)c(Cl)c(N)c2F)c1F", "note": "[Compound A Acid, 4-amino-3-chloro-6-(4-chloro-2-fluoro-3-methoxyphenyl)-5-fluoropyridine-2-carboxylic acid]", "values": [{"measurement": "Visual Weed Control (%) - 20 DAA CYPDI Obs", "setting": "CYPDI", "result": 80, "unit": "%"}, {"measurement": "Visual Weed Control (%) - 22 DAA CYPDI Obs", "setting": "CYPDI", "result": 60, "unit": "%"}]}, {"smiles": "COc1c(Cl)ccc(-c2nc(C(=O)OCc3ccccc3)c(Cl)c(N)c2F)c1F", "note": "[Compound A Benzyl Ester, benzyl ester of 4-amino-3-chloro-5-fluoro-6-(4-chloro-2-fluoro-3-methoxy-phenyl)pyridine-2-carboxylic acid]", "values": [{"measurement": "Visual Weed Control (%) - 20 DAA BRAPP Obs", "setting": "BRAPP; 4.38 gae/ha", "result": 50, "unit": "%"}, {"measurement": "Visual Weed Control (%) - 20 DAA BRAPP Obs", "setting": "BRAPP; 8 gae/ha", "result": 70, "unit": "%"}, {"measurement": "Visual Weed Control (%) - 20 DAA BRAPP Obs", "setting": "BRAPP; 8.75 gae/ha", "result": 70, "unit": "%"}, {"measurement": "Visual Weed Control (%) - 20 DAA BRAPP Obs", "setting": "BRAPP; 16 gae/ha", "result": 75, "unit": "%"}, {"measurement": "Visual Weed Control (%) - 20 DAA BRAPP Obs", "setting": "BRAPP; 32 gae/ha", "result": 90, "unit": "%"}, {"measurement": "Visual Weed Control (%) - 21 DAA APESV Obs", "setting": "APESV; [1]", "result": 0, "unit": "%"}, {"measurement": "Visual Weed Control (%) - 21 DAA APESV Obs", "setting": "APESV; [2]", "result": 0, "unit": "%"}, {"measurement": "Visual Weed Control (%) - 21 DAA PHAMI Obs", "setting": "PHAMI; [1]", "result": 0, "unit": "%"}, {"measurement": "Visual Weed Control (%) - 21 DAA PHAMI Obs", "setting": "PHAMI; [2]", "result": 0, "unit": "%"}]}]}
